# Values of other authors, collected in patent US5872104A, “Combinations and methods for reducing antimicrobial resistance” (Oridigm Corporation, priority 1994, dated 1999).
# Where “and” joins values, the source holds several entries; their conditions need not be identical. Equal entries are not always repeated. Where two headings read alike, the source gives them in different places.
# Assays:
# Bordetella pertussis [1] = settings: cited from earlier work
# [2] = test system: Staphylococcus coagulase .phi. (non β-lactamase producer); settings: cited from earlier work
# [3] = test system: Staphylococcus epidermidis; settings: cited from earlier work
# Campylobacter jejuni = settings: in µg/mL; cited from earlier work
# Streptococcus pneumoniae = settings: in µg/mL; cited from earlier work
# Campylobacter pylori = settings: cited from earlier work
# [4] = test system: Staphylococcus coagulase .phi. (β-lactamase producer); settings: cited from earlier work
# Corynebacterium JK = settings: cited from earlier work
# Bordetella pertussis [5] = settings: in µg/mL; cited from earlier work
# [6] = test system: Neisseria gonorrhoeae (non β-lactamase producer); settings: cited from earlier work
# Streptococcus spp. = settings: cited from earlier work
# Bacteroides fragilis [7] = settings: anaerobes; in µg/mL; cited from earlier work
# [8] = test system: Haemophilus parainfluenzae; settings: cited from earlier work
# [9] = test system: Branhamella (Moraxella) catarrhalis; settings: cited from earlier work
# [10] = test system: Staphylococcus coagulase .phi.; settings: cited from earlier work
# Mycoplasma pneumoniae [11] = settings: cited from earlier work
# Staphylococcus aureus = settings: cited from earlier work
# N. meningitidis = settings: in µg/mL; cited from earlier work
# Haemophilus ducreyi = settings: cited from earlier work
# Nocardia asteroides = settings: cited from earlier work
# [12] = test system: Bordetella bronchiseptica; settings: cited from earlier work
# Mycoplasma pneumoniae [13] = settings: in µg/mL; cited from earlier work
# Ureaplasma urealyticum = settings: cited from earlier work
# [14] = test system: Staphylococcus haemolyticus; settings: cited from earlier work
# Borrelia burgdorferi = settings: cited from earlier work
# Streptococcus pyogenes = settings: cited from earlier work
# [15] = test system: Haemophilus influenzae (penicillin susceptible); settings: cited from earlier work
# Bacteroides fragilis [16] = settings: cited from earlier work
# S. aureus = settings: agar disc susceptibility test; cited from earlier work
# Bacillus spp. = settings: cited from earlier work
# Listeria monocytogenes [17] = settings: in µg/mL; cited from earlier work
# [18] = test system: Staphylococcus aureus, methicillin susceptible; settings: in µg/mL; cited from earlier work
# Viridans streptococci = settings: cited from earlier work
# Listeria monocytogenes [19] = settings: in µg/mL; cited from earlier work; remark: listed apart in the source
# Moraxella catarrhalis = settings: in µg/mL; cited from earlier work
# [20] = test system: Streptococcus agalactactiae (group B); settings: in µg/mL; cited from earlier work
# Legionella spp. = settings: cited from earlier work
# Neisseria meningitidis = settings: cited from earlier work
# Enterococcus faecium = settings: cited from earlier work
# [21] = test system: Chlamydia pneumoniae (formerly TWAR); settings: in µg/mL; cited from earlier work
# Haemophilus influenzae = settings: cited from earlier work
# Neisseria gonorrhoeae [22] = settings: cited from earlier work
# [23] = in vivo; cited from earlier work
# Streptococcus agalactiae = settings: cited from earlier work
# Bordetella parapertussis = settings: cited from earlier work
# [24] = test system: Haemophilus influenzae (penicillin resistant); settings: cited from earlier work
# Legionella pneumophila = settings: in µg/mL; cited from earlier work
# Neisseria gonorrhoeae [25] = settings: in µg/mL; cited from earlier work
# Clostridium perfringens = settings: anaerobes; in µg/mL; cited from earlier work
# [26] = test system: Staphylococcus aureus (penicillin susceptible); settings: cited from earlier work
# [27] = test system: Staphylococcus aureus (penicillin resistant); settings: cited from earlier work
# [28] = test system: Streptococcus pyogenes (group A), erythromycin susceptible; settings: cited from earlier work
# Chlamydia trachomatis = settings: in µg/mL; cited from earlier work
# Staphylococcus hominis = settings: cited from earlier work
# [29] = test system: Staphylococcus aureus (methicillin susceptible); settings: in µg/mL; cited from earlier work
# Enterococcus spp. = settings: cited from earlier work
smiles,measurement,setting,value
CC[C@H]1OC(=O)[C@H](C)[C@@H](O[C@H]2C[C@@](C)(OC)[C@@H](O)[C@H](C)O2)[C@H](C)[C@@H](O[C@@H]2O[C@H](C)C[C@H](N(C)C)[C@H]2O)[C@](C)(O)C[C@@H](C)C(=O)[C@H](C)[C@@H](O)[C@]1(C)O [Erythromycin],MIC50,Bordetella pertussis [1],0.25 µg/mL
same,MIC90,[2],0.25 µg/mL
same,Range,[2],0.03-8
same,MIC50,[3],≥ 64 µg/mL
same,MIC90,[3],≥ 64 µg/mL
same,MIC90,Campylobacter jejuni,4 and 2
same,MIC90,Streptococcus pneumoniae,0.03-1.0
same,MIC50,Campylobacter pylori,0.5 µg/mL
same,Range,Campylobacter pylori,0.25-16
same,MIC90,[4],4 µg/mL
same,Range,[4],0.06-16
same,MIC50,Corynebacterium JK,2 µg/mL
same,MIC90,Corynebacterium JK,≥ 64 µg/mL
same,MIC90,Bordetella pertussis [5],0.3-1.6
same,Range,[6],0.015-4 and 0.03-2
same,MIC50,Streptococcus spp.,0.03 µg/mL
same,MIC90,Streptococcus spp.,1 µg/mL
same,MIC90,Bacteroides fragilis [7],4.0-32.0
same,MIC50,[8],2 µg/mL
same,MIC90,[8],4 µg/mL
same,Range,[8],0.5-8
same,MIC50,[9],0.25 µg/mL
same,MIC50,[10],0.25 µg/mL
same,MIC90,Mycoplasma pneumoniae [11],≤ 4 ng/mL
same,MIC50,Staphylococcus aureus,0.5 µg/mL
same,MIC90,N. meningitidis,0.4-1.6
same,MIC50,Haemophilus ducreyi,4 ng/mL
same,MIC90,Haemophilus ducreyi,0.06 µg/mL
same,MIC50,Nocardia asteroides,≥ 8 µg/mL
same,MIC90,Nocardia asteroides,≥ 8 µg/mL
same,MIC50,[12],8 µg/mL
same,MIC90,[12],32 µg/mL
same,Range,[12],4-32
same,MIC90,Mycoplasma pneumoniae [13],0.004
same,MIC90,Ureaplasma urealyticum,32 µg/mL
same,MIC50,[14],≥ 64 µg/mL
same,MIC90,[14],≥ 64 µg/mL
same,MIC50,Borrelia burgdorferi,0.03 µg/mL
same,MIC90,Borrelia burgdorferi,0.06 µg/mL
same,MIC50,Streptococcus pyogenes,0.06 µg/mL
same,MIC50,[15],8 µg/mL
same,MIC90,[15],16 µg/mL
same,Range,[15],0.25-16
same,MIC50,Bacteroides fragilis [16],1 µg/mL
same,MIC90,Bacteroides fragilis [16],8 µg/mL
same,Range,Bacteroides fragilis [16],≤0.25-16
same,MIC90,S. aureus,about 4 μg/ml
same,MIC50,Bacillus spp.,0.25 µg/mL
same,MIC90,Bacillus spp.,2 µg/mL
same,Range,Bacillus spp.,0.03-2
same,MIC90,Listeria monocytogenes [17],0.5-2.0
same,MIC90,[18],0.25-0.50
same,MIC90,Viridans streptococci,0.06 µg/mL
same,MIC50,Listeria monocytogenes [19],0.5 and 0.25
same,MIC90,Moraxella catarrhalis,0.25-2.0
same,MIC90,[20],0.03-0.25
same,MIC90,Legionella spp.,0.25 µg/mL
same,MIC50,Neisseria meningitidis,1 µg/mL
same,MIC90,Neisseria meningitidis,8 µg/mL
same,Range,Neisseria meningitidis,0.5-8
same,MIC50,Enterococcus faecium,1 µg/mL
same,MIC90,Enterococcus faecium,≥ 64 µg/mL
same,MIC90,[21],0.065-1.0
same,Range,Haemophilus influenzae,0.5-8
same,MIC50,Haemophilus influenzae; in µg/mL,2 and 1
same,MIC50,Neisseria gonorrhoeae [22],0.25 µg/mL
same,MIC90,Neisseria gonorrhoeae [22],1 µg/mL
same,Range,Neisseria gonorrhoeae [22],0.0075-8
same,clinical safety,[23],one of the safest antibiotics in current clinical use
same,MIC50,Streptococcus agalactiae,0.03 µg/mL
same,Range,Streptococcus agalactiae,0.03-0.25
same,MIC50,Bordetella parapertussis,0.25 µg/mL
same,MIC90,Bordetella parapertussis,0.25 µg/mL
same,MIC50,[24],8 µg/mL
same,MIC90,[24],16 µg/mL
same,Range,[24],8-16
same,MIC90,Legionella pneumophila,1.0-2.0
same,MIC90,Neisseria gonorrhoeae [25],0.25-2.0
same,MIC90,Clostridium perfringens,1.0
same,MIC90,[26],0.5 µg/mL
same,MIC50,[26]; in µg/mL,0.5 and 0.25
same,MIC50,[27],0.25 µg/mL
same,MIC90,[27],≥ 32 µg/mL
same,MIC90,[28],0.03 µg/mL
same,MIC90,Chlamydia trachomatis,0.12-0.25
same,MIC50,Staphylococcus hominis,≥ 64 µg/mL
same,MIC90,Staphylococcus hominis,≥ 64 µg/mL
same,MIC50,[29],0.25 and 0.5
same,MIC50,Enterococcus spp.,2 µg/mL
same,MIC90,Enterococcus spp.,≥ 32 µg/mL
